Reference: PMC6199744, “Development of Chemical Proteomics for the Folateome and Analysis of the Kinetoplastid Folateome” (ACS Infectious Diseases, 2018)
Read-outs that look alike come from different tables or passages of the source.

What was measured:
Format in all cases: binding
[1] = molecular target: T1, HeLa cell extract proteins (Homo sapiens, UniProt O00462)
T1 construct: endogenous in cells; host or cells: HeLa cell extract
T1 sequence (O00462 18-879): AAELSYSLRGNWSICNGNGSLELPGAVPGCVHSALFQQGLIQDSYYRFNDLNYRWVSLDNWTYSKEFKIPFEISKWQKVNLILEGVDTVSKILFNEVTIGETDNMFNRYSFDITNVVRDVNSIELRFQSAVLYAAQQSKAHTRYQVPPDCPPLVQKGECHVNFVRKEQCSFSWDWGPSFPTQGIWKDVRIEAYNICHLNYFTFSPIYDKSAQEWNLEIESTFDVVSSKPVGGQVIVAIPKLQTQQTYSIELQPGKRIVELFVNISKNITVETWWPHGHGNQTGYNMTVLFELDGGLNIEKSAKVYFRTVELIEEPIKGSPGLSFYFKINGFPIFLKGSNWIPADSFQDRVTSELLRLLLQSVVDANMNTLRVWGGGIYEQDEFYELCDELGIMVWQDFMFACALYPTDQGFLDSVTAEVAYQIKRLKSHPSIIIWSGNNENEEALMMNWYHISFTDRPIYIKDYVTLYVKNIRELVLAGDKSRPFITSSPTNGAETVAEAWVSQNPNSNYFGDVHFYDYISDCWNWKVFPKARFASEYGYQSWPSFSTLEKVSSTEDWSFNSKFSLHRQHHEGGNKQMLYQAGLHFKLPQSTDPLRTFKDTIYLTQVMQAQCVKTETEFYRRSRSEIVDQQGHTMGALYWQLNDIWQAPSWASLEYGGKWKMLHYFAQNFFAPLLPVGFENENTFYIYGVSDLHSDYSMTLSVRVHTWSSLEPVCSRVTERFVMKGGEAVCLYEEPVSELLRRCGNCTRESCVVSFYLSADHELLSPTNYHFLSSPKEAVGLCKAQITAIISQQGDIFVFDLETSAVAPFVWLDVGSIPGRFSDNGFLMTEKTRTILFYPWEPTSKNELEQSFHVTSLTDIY

[2] = molecular target: T2, HeLa cell extract proteins (Homo sapiens, UniProt P12268)
T2 construct: endogenous in cells; host or cells: HeLa cell extract

[3] = molecular target: T3, HeLa cell extract proteins (Homo sapiens, UniProt P30046)
T3 construct: endogenous in cells; host or cells: HeLa cell extract

[4] = molecular target: T4, HeLa cell extract proteins (Homo sapiens, UniProt Q9H9T3)
T4 construct: endogenous in cells; host or cells: HeLa cell extract
T4 sequence (Q9H9T3 1-547): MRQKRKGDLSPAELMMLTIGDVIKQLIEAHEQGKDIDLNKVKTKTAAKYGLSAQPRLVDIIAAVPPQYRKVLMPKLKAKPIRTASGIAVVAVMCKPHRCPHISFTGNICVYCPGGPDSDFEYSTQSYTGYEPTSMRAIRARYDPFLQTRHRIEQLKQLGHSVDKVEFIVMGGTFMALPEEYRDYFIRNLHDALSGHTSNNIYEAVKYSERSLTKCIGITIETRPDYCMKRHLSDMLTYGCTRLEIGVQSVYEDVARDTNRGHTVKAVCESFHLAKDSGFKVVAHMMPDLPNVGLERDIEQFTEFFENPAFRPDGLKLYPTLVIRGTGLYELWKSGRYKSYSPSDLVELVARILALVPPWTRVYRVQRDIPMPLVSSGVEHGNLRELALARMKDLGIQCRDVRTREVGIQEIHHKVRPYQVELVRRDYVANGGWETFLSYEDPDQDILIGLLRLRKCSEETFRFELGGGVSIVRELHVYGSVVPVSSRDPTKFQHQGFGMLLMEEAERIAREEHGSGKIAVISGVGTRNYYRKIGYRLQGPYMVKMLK

[5] = molecular target: T5, HeLa cell extract proteins (Homo sapiens, UniProt Q9Y6G9)
T5 construct: endogenous in cells; host or cells: HeLa cell extract

[6] = molecular target: T6, HeLa cell extract proteins (Homo sapiens, UniProt O75396); conditions: protein SEC22B; HeLa
T6 construct: endogenous in cells; host or cells: HeLa cell extract
T6 sequence (O75396 1-215): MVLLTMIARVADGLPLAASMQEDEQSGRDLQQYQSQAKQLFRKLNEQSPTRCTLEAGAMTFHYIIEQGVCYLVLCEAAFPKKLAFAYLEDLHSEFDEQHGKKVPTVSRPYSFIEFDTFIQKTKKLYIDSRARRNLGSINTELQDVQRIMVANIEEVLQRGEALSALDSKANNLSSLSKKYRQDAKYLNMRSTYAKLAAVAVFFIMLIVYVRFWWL

[7] = molecular target: T7, HeLa cell extract proteins (Homo sapiens, UniProt P46782); conditions: protein RPS5; HeLa
T7 construct: endogenous in cells; host or cells: HeLa cell extract

[8] = HeLa, protein MANBA (BETA-MANNOSIDASE PRECURSOR)

T5 sequence (Q9Y6G9 whole entry): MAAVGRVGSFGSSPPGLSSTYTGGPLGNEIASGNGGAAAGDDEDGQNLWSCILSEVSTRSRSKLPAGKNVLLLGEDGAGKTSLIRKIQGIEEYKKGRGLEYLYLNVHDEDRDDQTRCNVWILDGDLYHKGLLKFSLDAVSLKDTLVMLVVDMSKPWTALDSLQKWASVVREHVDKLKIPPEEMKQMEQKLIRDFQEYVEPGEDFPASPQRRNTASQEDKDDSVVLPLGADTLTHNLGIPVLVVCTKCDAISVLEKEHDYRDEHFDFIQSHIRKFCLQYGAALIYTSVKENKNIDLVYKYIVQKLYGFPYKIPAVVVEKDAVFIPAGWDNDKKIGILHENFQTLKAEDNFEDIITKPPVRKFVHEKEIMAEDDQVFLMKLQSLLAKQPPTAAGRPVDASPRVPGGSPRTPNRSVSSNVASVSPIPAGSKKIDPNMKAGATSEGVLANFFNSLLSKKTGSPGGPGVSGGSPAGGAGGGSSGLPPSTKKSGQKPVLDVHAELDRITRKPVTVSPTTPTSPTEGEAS
T3 sequence (P30046 whole entry): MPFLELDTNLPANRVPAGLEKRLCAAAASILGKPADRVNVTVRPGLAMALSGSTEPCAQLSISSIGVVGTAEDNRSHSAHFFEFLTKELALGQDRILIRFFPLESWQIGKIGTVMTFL

| SMILES | fold changes relative to vehicle control ([2]; HeLa, protein IMPDH2) | fold changes relative to vehicle control ([3]; HeLa, captured protein DDT) | fold changes relative to vehicle control ([4]; protein ELP3, HeLa) | fold changes relative to vehicle control ([5]; HeLa, protein DYNC1LI1) | fold changes relative to vehicle control [6] | fold changes relative to vehicle control [7] | also measured |
| --- | --- | --- | --- | --- | --- | --- | --- |
| Nc1nc2c(c(=O)[nH]1)N(C=O)C(CNc1ccc(C(=O)N[C@@H](CCC(=O)O)C(=O)O)cc1)CN2 (some centres unmarked) [LEU, leucovorin] | 1.06 | 1.06 | 0.88 | 0.9 |  |  | fold changes relative to vehicle control ([1]; HeLa, protein MANBA (BETA-M[…])): 1.01 |
| Nc1nc2[nH]cc(CCc3ccc(C(=O)N[C@@H](CCC(=O)O)C(=O)O)cc3)c2c(=O)[nH]1 [PTX, pemetrexed] |  |  |  |  |  |  | fold changes relative to vehicle control [1]: 0.71; fold changes relative to vehicle control [2]: 0.97; fold changes relative to vehicle control [3]: 1.49; fold changes relative to vehicle control [4]: 0.72; fold changes relative to vehicle control [5]: 0.81 |
| CCCCCCOc1ccc(Cc2cnc(N)nc2N)cc1 [compound 1] |  |  |  |  | 0.96 | 1.04 |  |
| CCCCCCOc1cccc(Cc2cnc(N)nc2N)c1 [compound 2] |  |  |  |  | 1.41 | 1.1 |  |
| Nc1nc2cccc(-c3ccccc3)c2n1Cc1ccc(Cl)c(Cl)c1 [compound 3] |  |  |  |  | 0.89 | 1.01 |  |
| NCCOCCOCC(=O)Nc1nc2ncc(CNc3ccc(C(=O)NC(CCC(=O)O)C(=O)O)cc3)nc2c(=O)[nH]1 (centres unmarked) [compound 6] | 1.18 | 1.79 | 0.91 | 0.9 |  |  | fold changes relative to vehicle control [1, 8]: 0.71 |
| NCCCNc1ccc(C(=O)NC(CCC(=O)O)C(=O)O)cc1 (centres unmarked) [compound 7] | 1.03 | 1.25 | 0.9 | 0.88 |  |  | fold changes relative to vehicle control [1, 8]: 0.91 |
